Assay results published in the supplement of paper PMC10307832.

Legend:
Test in all cases: relative viability (nuclei count vs DMSO), 5 days (fraction); higher = more cells survive
XMD14-99 + Luminespib = compound: CN1CCN(CC1)C2=CC(=C(C=C2)NC3=NC(=C(S3)C(=O)C4=C(C=CC=C4Cl)Cl)N)OC [XMD14-99] + CCNC(=O)c1noc(-c2cc(C(C)C)c(O)cc2O)c1-c1ccc(CN2CCOCC2)cc1 [Luminespib] (partner 0.01 µM)
In short: (§1)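 Relative viability divides the nuclei count in treated wells by that in vehicle wells. Lung cancer cell lines were seeded in 1536-well plates, dosed by pin tool the next day, and fixed and stained after 5 days in one step with final 0.05% Triton X-100, 1% formaldehyde and 1 ug/ml Hoechst. Dosing was a single drug or a fixed anchor-drug dose plus five library-drug doses (not always all listed) in √10 steps, and values are medians of duplicate plates imaged at 4×.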

XMD14-99 + Olaparib = compound: CN1CCN(CC1)C2=CC(=C(C=C2)NC3=NC(=C(S3)C(=O)C4=C(C=CC=C4Cl)Cl)N)OC [XMD14-99] + O=C(c1cc(Cc2n[nH]c(=O)c3ccccc23)ccc1F)N1CCN(C(=O)C2CC2)CC1 [Olaparib] (partner 8 µM)
In short: as §1

AZD1208 + Pictilisib = compound: N[C@@H]1CCCN(c2c(/C=C3\SC(=O)NC3=O)cccc2-c2ccccc2)C1 [AZD1208] + CS(=O)(=O)N1CCN(Cc2cc3nc(-c4cccc5[nH]ncc45)nc(N4CCOCC4)c3s2)CC1 [Pictilisib] (partner 1 µM)
In short: as §1

AZD1208 + AZD7762 = compound: N[C@@H]1CCCN(c2c(/C=C3\SC(=O)NC3=O)cccc2-c2ccccc2)C1 [AZD1208] + NC(=O)Nc1cc(-c2cccc(F)c2)sc1C(=O)N[C@H]1CCCNC1 [AZD7762] (partner 0.2 µM)
In short: as §1

| Cell Line | relative viability (XMD14-99 + Luminespib; first compound 0.08 µM) | relative viability (XMD14-99 + Luminespib; first compound 0.8 µM) | relative viability (XMD14-99 + Luminespib; first compound 2.53 µM) | relative viability (XMD14-99 + Luminespib; first compound 8 µM) | relative viability (XMD14-99 + Olaparib; first compound 0.08 µM) | relative viability (XMD14-99 + Olaparib; first compound 0.8 µM) | relative viability (XMD14-99 + Olaparib; first compound 2.53 µM) | relative viability (XMD14-99 + Olaparib; first compound 8 µM) | relative viability (AZD1208 + Pictilisib; first compound 0.08 µM) | relative viability (AZD1208 + Pictilisib; first compound 0.253 µM) | relative viability (AZD1208 + Pictilisib; first compound 0.8 µM) | relative viability (AZD1208 + Pictilisib; first compound 2.53 µM) | relative viability (AZD1208 + Pictilisib; first compound 8 µM) | relative viability (AZD1208 + AZD7762; first compound 0.08 µM) | relative viability (AZD1208 + AZD7762; first compound 0.253 µM) | relative viability (AZD1208 + AZD7762; first compound 0.8 µM) | relative viability (AZD1208 + AZD7762; first compound 2.53 µM) | relative viability (AZD1208 + AZD7762; first compound 8 µM) |
| --- | --- | --- | --- | --- | --- | --- | --- | --- | --- | --- | --- | --- | --- | --- | --- | --- | --- | --- |
| NCI-H1437 | 1.12 | 0.992 | 0.949 | 0.862 | 0.615 | 0.622 | 0.56 | 0.464 | 0.369 | 0.388 | 0.271 | 0.246 | 0.247 | 1.18 | 1.13 | 1.06 | 1.09 | 1.05 |
| LU99A | 0.288 | 0.252 | 0.247 | 0.219 | 0.304 | 0.263 | 0.19 | 0.135 | 0.304 | 0.294 | 0.289 | 0.35 | 0.236 | 0.371 | 0.385 | 0.41 | 0.435 | 0.365 |
| HCC-827 | 0.492 | 0.669 | 0.595 | 0.617 | 0.596 | 0.632 | 0.622 | 0.491 | 1.07 | 1.15 | 0.992 | 0.95 | 0.784 | 0.205 | 0.259 | 0.237 | 0.239 | 0.197 |
| LK-2 | 0.183 | 0.188 | 0.206 | 0.171 | 0.751 | 0.591 | 0.685 | 0.419 | 0.373 | 0.349 | 0.29 | 0.383 | 0.266 | 0.307 | 0.167 | – | 0.11 | 0.144 |
| BEN | 0.377 | 0.419 | 0.271 | 0.285 | 0.979 | 1.06 | 0.786 | 0.773 | 0.525 | 0.447 | 0.414 | 0.387 | 0.373 | 0.749 | 0.578 | 0.562 | 0.503 | 0.478 |
